In ChEMBL document CHEMBL2029230, “Identification, design and biological evaluation of heterocyclic quinolones targeting Plasmodium falciparum type II NADH:quinone oxidoreductase (PfNDH2)” (J Med Chem, 2012):
pIC50: −log10 of the molar value.

Legend:
Plasmodium falciparum [1] = experiment: Antimalarial activity against blood stage forms of Plasmodium falciparum 3D7 infected in human erythrocytes; format: functional, organism-based
[2] = Inhibition of Plasmodium falciparum recombinant NDH2 expressed in Escherichia coli F571 using decyclubiquinone as substrate at 1 min by spectrophotometry
Plasmodium falciparum [3] = experiment: Antimalarial activity against chloroquine-resistant Plasmodium falciparum W2; format: functional, organism-based
Plasmodium berghei [4] = experiment: Antimalarial activity against Plasmodium berghei NS infected in po dosed CD1 mouse assessed as decrease in parasitemia measured on day 4; format: functional; settings: 96 h
Plasmodium berghei [5] = experiment: Antimalarial activity against Plasmodium berghei NS infected in CD1 mouse assessed as decrease in parasitemia at 20 mg/kg, po administered using Na2CO3 as vehicle measured on day 4; format: functional; parameters: scale not given: the % may be the effect or the level left
[6] = AUC (0 to t) in rat at 20 mg/kg, po; format: ADME, organism-based; parameters: dose 20 mg/kg, route oral; settings: plasma
[7] = Tmax in rat at 20 mg/kg, po; format: ADME, organism-based; parameters: dose 20 mg/kg, route oral; settings: in vivo
Rattus norvegicus = experiment: Volume of distribution in rat at 20 mg/kg, po; format: ADME, organism-based; parameters: dose 20 mg/kg, route oral; settings: in vivo
[8] = Cmax in rat at 20 mg/kg, po; format: ADME, organism-based; parameters: dose 20 mg/kg, route oral; settings: in vivo
[9] = Half life in rat at 20 mg/kg, po; format: ADME, organism-based; parameters: dose 20 mg/kg, route oral; settings: in vivo
Plasmodium berghei [10] = experiment: Antimalarial activity against Plasmodium berghei NS infected in CD1 mouse assessed as decrease in parasitemia at 20 mg/kg, po administered using SSV as vehicle measured on day 4; format: functional; parameters: scale not given: the % may be the effect or the level left
[11] = Total clearance in rat at 20 mg/kg, po; format: ADME, organism-based; parameters: dose 20 mg/kg, route oral; settings: in vivo
Plasmodium falciparum [12] = experiment: Antimalarial activity against […]-resistant Plasmodium falciparum TM90C2B containing cytochrome-b Y268S mutant; format: functional, organism-based
Plasmodium berghei [13] = experiment: Antimalarial activity against Plasmodium berghei NS infected in CD1 mouse assessed as decrease in parasitemia at 20 mg/kg, po administered using DET as vehicle measured on day 4; format: functional; parameters: scale not given: the % may be the effect or the level left

## CCOC(=O)c1c(-c2ccc(-c3ccc(OC(F)(F)F)cc3)nc2)[nH]c2ccccc2c1=O
Plasmodium falciparum [1]
  pIC50: 6.01

## O=c1c(CO)c(-c2ccc(-c3ccc(OC(F)(F)F)cc3)nc2)[nH]c2ccccc12
[2]
  pIC50: 6.39
Plasmodium falciparum [1]
  pIC50: 6.99

## COc1c(-c2ccc(-c3ccc(OC(F)(F)F)cc3)nc2)[nH]c2ccccc2c1=O
Plasmodium falciparum [1]
  pIC50: 7.03

## Cc1c(-c2ccc(-c3ccc(C(F)(F)F)nc3)nc2)[nH]c2ccccc2c1=O
Plasmodium falciparum [3]
  pIC50: 6.48
Plasmodium falciparum [1]
  pIC50: 6.43

## Cc1c(-c2ccc(Oc3ccc(OC(F)(F)F)cc3)nc2)[nH]c2ccccc2c1=O
Plasmodium falciparum [3]
  pIC50: 7.30
[2]
  pIC50: 6.96
Plasmodium falciparum [1]
  pIC50: 7.40

## Cc1c(-c2ccc(Oc3ccc(F)cc3)nc2)[nH]c2ccccc2c1=O
[2]
  pIC50: 6.23
Plasmodium falciparum [1]
  pIC50: 6.55

## Cc1c(-c2ccc(Cc3ccc(C(F)(F)F)nc3)cc2F)[nH]c2ccccc2c1=O
Plasmodium falciparum [3]
  pIC50: 7.17
Plasmodium falciparum [1]
  pIC50: 6.87

## Cc1c(-c2ccc(OC3CCC(F)(F)CC3)cc2)[nH]c2ccccc2c1=O
Plasmodium falciparum [1]
  pIC50: 6.50

## Cc1c(-c2ccc(OC3CCOCC3)cc2)[nH]c2ccccc2c1=O
Plasmodium falciparum [1]
  pIC50: < 6.00

## Cc1c(-c2ccc(CN3CCOCC3)cc2)[nH]c2cc(Cl)ccc2c1=O
Plasmodium falciparum [1]
  pIC50: < 6.00

## Cc1c(-c2ccc(CN3CCOCC3)cc2)[nH]c2ccccc2c1=O
Plasmodium falciparum [3]
  pIC50: 5.51
Plasmodium falciparum [1]
  pIC50: 7.49

## Cc1c(-c2ccc(OC3CCOCC3)cc2)[nH]c2ncccc2c1=O
Plasmodium falciparum [1]
  pIC50: < 6.00

## Cc1c(-c2ccc(-c3ccc(CN4CCOCC4)cc3)cc2)[nH]c2ccccc2c1=O
Plasmodium falciparum [1]
  pIC50: 6.30

## Cc1c(-c2ccc(-c3ccc(CN4CCOCC4)cc3)nc2)[nH]c2ccccc2c1=O
Plasmodium falciparum [1]
  pIC50: < 6.00

## Cc1c(-c2ccc(OCCN3CCOCC3)cc2)[nH]c2ccccc2c1=O
Plasmodium falciparum [1]
  pIC50: < 6.00

## Cc1c(-c2ccc(OCCN3CCOCC3)cc2)[nH]c2ccc(Cl)cc2c1=O
Plasmodium falciparum [1]
  pIC50: < 6.00

## Cc1c(-c2ccc(OCCN3CCOCC3)cc2)[nH]c2cc(Cl)ccc2c1=O
Plasmodium falciparum [1]
  pIC50: < 6.00

## Cc1c(-c2ccc(OCCN3CCCCC3)cc2)[nH]c2ccccc2c1=O
Plasmodium falciparum [1]
  pIC50: < 6.00

## Cc1c(-c2ccc(OCCN3CCCC3)cc2)[nH]c2ccccc2c1=O
Plasmodium falciparum [1]
  pIC50: < 6.00

## Cc1c(-c2ccc(OCCN3CCN(C)CC3)cc2)[nH]c2ccccc2c1=O
Plasmodium falciparum [1]
  pIC50: < 6.00

## Cc1c(-c2ccc(OCCn3ccnc3)cc2)[nH]c2ccccc2c1=O
Plasmodium falciparum [1]
  pIC50: < 6.00

## Cc1c(-c2ccc(-c3cnn(CCN4CCOCC4)c3)cc2)[nH]c2ccccc2c1=O
Plasmodium falciparum [1]
  pIC50: < 6.00

## Cc1c(-c2ccc(-c3cnn(CCN4CCCCC4)c3)cc2)[nH]c2ccccc2c1=O
Plasmodium falciparum [1]
  pIC50: < 6.00

## Cc1c(-c2ccc(-c3cccc(OCCN4CCOCC4)c3)nc2)[nH]c2ccccc2c1=O
Plasmodium falciparum [1]
  pIC50: < 6.00

## Cc1c(-c2ccc(-c3cccc(OCCN4CCCCC4)c3)nc2)[nH]c2ccccc2c1=O
Plasmodium falciparum [1]
  pIC50: < 6.00

## Cc1c(-c2ccc(-c3ccc(OCCN4CCCCC4)cc3)nc2)[nH]c2ccccc2c1=O
Plasmodium falciparum [1]
  pIC50: 6.22

## Cc1c(-c2ccc(CN3CCN(Cc4ccc(OC(F)(F)F)cc4)CC3)nc2)[nH]c2ccccc2c1=O
Plasmodium falciparum [1]
  pIC50: 6.17

## Cc1c(-c2ccc(-c3ccc(OC(F)(F)F)cc3)nc2)[nH]c2ccccc2c1=O.O=P(O)(O)O
Plasmodium berghei [4]
  ED50: 1.87 mg/kg
  ED90: 4.72 mg/kg

## Cc1c(-c2ccc(-c3ccc(OC(F)(F)F)cc3)nc2)nc2ccccc2c1OP(=O)(O)O
Plasmodium berghei [5]
  Activity: 100%

## Cc1c(-c2ccc(-c3ccc(OC(F)(F)F)cc3)nc2)nc2ccccc2c1OC(=O)N1CCOCC1
[6]
  AUC(0-t): 167 µg·h/mL
[7]
  Tmax: 7 h
Rattus norvegicus
  Vd: 2.8756 L/kg
[8]
  Cmax: 8100 ng/mL
[9]
  half-life: 20.3 h
Plasmodium berghei [10]
  Activity: 100%
[11]
  CL/F: 1.63 mL/min/kg

## CO[C@H]1O[C@@H]2O[C@@]3(C)CC[C@H]4[C@H](C)CC[C@@H]([C@H]1C)[C@@]24OO3
Plasmodium berghei [4]
  ED50: 3.1 mg/kg
  ED90: 5.8 mg/kg

## O=C1C(O)=C([C@H]2CC[C@H](c3ccc(Cl)cc3)CC2)C(=O)c2ccccc21 [ATOVAQUONE]
Plasmodium falciparum [12]
  pIC50: 4.92
Plasmodium berghei [4]
  ED50: 0.07 mg/kg
  ED90: 0.11 mg/kg
Plasmodium berghei [10]
  Activity: 100%
Plasmodium berghei [13]
  Activity: 100%

## CCN(CC)CCCC(C)Nc1ccnc2cc(Cl)ccc12 (stereo not drawn) [CHLOROQUINE]
Plasmodium berghei [4]
  ED50: 3.3 mg/kg
  ED90: 4.6 mg/kg
